The source of these data is ChEMBL document CHEMBL4825781, “Role of Fluorination in the Histone Deacetylase 6 (HDAC6) Selectivity of Benzohydroxamate-Based Inhibitors” (ACS Med Chem Lett, 2021).

Assay [1] has as its target Histone deacetylase 2 (Homo sapiens, UniProt Q92769). Put plainly: Inhibition of recombinant human C-terminal His-tagged HDAC2 (1 to 488 residues) expressed in Sf9 insect cells using Fluor de Lys deacetylase or Fluor de Lys Green deacetylase substrate by fluorescent microplate reader assay.
Assay [2] deals with Histone deacetylase 3 (Homo sapiens, UniProt O15379). Put plainly: Inhibition of recombinant human C-terminal His-tagged HDAC3 (1 to 428 residues) expressed in Sf9 insect cells using Fluor de Lys deacetylase or Fluor de Lys Green deacetylase substrate by fluorescent microplate reader assay.
Sequence of Histone deacetylase 3 (O15379 whole entry, the tested form may be a part): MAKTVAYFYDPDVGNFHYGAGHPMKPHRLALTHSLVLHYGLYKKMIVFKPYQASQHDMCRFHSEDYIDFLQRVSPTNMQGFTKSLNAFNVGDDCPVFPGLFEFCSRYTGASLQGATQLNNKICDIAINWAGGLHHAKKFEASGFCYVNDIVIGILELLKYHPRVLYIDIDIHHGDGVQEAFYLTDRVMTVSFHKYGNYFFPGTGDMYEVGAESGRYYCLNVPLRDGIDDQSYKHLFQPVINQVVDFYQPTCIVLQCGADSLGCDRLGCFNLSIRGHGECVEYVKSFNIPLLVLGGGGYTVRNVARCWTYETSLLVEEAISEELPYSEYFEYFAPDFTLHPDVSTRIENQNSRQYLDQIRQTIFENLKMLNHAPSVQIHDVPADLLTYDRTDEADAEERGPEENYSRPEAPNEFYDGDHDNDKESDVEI
Assay [3] concerns the target Histone deacetylase 1 (Homo sapiens, UniProt Q13547). Put plainly: Inhibition of recombinant human C-terminal His-tagged HDAC1 expressed in Sf9 insect cells using Fluor de Lys deacetylase or Fluor de Lys Green deacetylase as substrate by fluorescent microplate reader assay.
Assay [4] concerns the target T1, Histone deacetylase 7 (Homo sapiens, UniProt Q8WUI4).
T1 sequence (Q8WUI4 whole entry): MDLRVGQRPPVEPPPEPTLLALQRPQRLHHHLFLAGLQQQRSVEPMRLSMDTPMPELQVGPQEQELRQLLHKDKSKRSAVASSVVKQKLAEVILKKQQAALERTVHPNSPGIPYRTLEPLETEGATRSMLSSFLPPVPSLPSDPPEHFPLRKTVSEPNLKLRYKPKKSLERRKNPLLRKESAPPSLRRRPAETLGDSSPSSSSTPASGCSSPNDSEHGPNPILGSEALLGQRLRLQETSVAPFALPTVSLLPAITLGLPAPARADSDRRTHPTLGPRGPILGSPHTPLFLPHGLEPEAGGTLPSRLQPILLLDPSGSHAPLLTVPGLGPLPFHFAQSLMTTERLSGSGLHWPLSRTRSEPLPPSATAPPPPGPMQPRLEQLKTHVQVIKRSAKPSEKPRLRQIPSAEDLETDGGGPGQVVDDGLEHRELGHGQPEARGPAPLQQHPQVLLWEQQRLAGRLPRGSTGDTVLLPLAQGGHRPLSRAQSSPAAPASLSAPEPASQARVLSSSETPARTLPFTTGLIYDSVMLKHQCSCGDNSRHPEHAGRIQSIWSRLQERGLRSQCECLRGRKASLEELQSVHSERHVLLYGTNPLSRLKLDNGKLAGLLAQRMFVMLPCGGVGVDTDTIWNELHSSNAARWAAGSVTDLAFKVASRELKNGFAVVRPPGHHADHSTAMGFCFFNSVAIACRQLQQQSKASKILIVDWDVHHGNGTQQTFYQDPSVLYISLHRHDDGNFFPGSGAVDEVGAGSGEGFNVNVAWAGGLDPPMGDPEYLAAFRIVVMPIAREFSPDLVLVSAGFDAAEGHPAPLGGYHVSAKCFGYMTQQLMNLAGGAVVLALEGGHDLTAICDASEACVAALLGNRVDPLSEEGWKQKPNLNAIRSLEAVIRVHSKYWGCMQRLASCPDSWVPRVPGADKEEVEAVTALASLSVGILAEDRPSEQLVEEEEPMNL
Put plainly: Inhibition of recombinant human N-terminal GST-tagged HDAC7 (518 to end residues) expressed in baculovirus expression system using Nepsilon-Trifluoroacetyl L-lysine as substrate by fluorescent microplate reader assay.

The target in assay [5] is Histone deacetylase 5 (Homo sapiens, UniProt Q9UQL6). Put plainly: Inhibition of recombinant human ful length N-terminal GST-tagged HDAC5 expressed in baculovirus expression system using Nepsilon-Trifluoroacetyl L-lysine as substrate by fluorescent microplate reader assay.
Sequence of Histone deacetylase 5 (Q9UQL6 whole entry): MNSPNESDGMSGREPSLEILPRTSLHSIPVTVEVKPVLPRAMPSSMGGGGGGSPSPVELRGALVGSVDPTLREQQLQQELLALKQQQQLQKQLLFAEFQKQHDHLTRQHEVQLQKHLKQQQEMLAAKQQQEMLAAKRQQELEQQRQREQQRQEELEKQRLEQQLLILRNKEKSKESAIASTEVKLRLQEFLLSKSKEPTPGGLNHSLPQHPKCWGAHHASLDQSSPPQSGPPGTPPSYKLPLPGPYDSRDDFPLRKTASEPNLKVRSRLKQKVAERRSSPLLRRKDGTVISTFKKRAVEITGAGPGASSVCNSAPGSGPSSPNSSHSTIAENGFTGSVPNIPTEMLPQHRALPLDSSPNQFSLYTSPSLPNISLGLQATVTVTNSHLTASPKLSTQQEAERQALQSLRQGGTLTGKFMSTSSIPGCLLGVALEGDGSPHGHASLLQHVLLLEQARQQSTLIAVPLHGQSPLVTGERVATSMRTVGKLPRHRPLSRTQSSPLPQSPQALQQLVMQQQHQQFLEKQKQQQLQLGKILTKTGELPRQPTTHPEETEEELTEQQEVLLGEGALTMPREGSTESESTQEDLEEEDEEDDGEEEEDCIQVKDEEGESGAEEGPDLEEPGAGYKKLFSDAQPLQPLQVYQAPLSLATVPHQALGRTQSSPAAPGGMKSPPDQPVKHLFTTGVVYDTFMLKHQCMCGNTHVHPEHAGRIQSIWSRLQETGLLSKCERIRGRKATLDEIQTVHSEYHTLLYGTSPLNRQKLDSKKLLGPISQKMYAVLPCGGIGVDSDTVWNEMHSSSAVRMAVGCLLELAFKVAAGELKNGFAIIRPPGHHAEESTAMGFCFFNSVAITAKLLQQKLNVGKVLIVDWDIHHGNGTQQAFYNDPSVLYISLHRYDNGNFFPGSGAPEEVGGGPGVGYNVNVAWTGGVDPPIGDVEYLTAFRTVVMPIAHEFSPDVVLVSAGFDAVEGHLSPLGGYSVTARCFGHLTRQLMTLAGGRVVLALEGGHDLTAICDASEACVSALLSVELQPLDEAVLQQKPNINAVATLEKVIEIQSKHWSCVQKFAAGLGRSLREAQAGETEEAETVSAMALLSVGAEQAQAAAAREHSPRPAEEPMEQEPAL
Assay [6] concerns the target T2, Histone deacetylase 11 (Homo sapiens, UniProt Q96DB2).
T2 sequence (Q96DB2 whole entry): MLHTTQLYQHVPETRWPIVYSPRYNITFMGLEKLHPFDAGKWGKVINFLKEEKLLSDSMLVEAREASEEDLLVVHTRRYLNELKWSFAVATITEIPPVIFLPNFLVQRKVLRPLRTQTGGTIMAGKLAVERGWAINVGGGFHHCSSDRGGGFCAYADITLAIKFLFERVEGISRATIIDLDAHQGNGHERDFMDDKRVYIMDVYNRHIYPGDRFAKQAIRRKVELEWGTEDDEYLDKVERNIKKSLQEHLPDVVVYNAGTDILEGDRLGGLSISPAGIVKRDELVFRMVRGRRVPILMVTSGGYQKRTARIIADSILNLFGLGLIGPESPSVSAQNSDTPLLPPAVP
Put plainly: Inhibition of recombinant human N-terminal His-tagged HDAC11 expressed in baculovirus expression system using Fluor de Lys deacetylase or Fluor de Lys Green deacetylase substrate by fluorescent microplate reader assay.

In assay [7] the target is T3, Histone deacetylase 8 (Homo sapiens, UniProt Q9BY41).
T3 sequence (Q9BY41 whole entry): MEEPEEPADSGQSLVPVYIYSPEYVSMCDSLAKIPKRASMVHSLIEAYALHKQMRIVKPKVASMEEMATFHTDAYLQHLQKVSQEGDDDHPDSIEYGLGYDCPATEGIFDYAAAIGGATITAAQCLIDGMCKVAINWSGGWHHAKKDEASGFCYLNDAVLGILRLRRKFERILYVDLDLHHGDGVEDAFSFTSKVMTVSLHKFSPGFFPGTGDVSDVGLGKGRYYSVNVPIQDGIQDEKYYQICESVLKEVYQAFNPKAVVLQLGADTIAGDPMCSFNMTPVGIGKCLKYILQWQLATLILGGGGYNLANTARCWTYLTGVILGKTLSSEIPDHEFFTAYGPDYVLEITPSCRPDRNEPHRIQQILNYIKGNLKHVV
Put plainly: Inhibition of recombinant human full length C-terminal His-tagged HDAC8 expressed in baculovirus expression system using Fluor de Lys deacetylase or Fluor de Lys Green deacetylase substrate by fluorescent microplate reader assay.

The species entered for assay [8] is Homo sapiens. Put plainly: Selectivity index, ratio of IC50 for recombinant human C-terminal His-tagged HDAC1 expressed in Sf9 cells to IC50 for recombinant human full length N-terminal GST-tagged HDAC6 expressed in Sf9 cells.
Assay [9] addresses T4, Polyamine deacetylase HDAC10 (Homo sapiens, UniProt Q969S8).
T4 sequence (Q969S8 whole entry): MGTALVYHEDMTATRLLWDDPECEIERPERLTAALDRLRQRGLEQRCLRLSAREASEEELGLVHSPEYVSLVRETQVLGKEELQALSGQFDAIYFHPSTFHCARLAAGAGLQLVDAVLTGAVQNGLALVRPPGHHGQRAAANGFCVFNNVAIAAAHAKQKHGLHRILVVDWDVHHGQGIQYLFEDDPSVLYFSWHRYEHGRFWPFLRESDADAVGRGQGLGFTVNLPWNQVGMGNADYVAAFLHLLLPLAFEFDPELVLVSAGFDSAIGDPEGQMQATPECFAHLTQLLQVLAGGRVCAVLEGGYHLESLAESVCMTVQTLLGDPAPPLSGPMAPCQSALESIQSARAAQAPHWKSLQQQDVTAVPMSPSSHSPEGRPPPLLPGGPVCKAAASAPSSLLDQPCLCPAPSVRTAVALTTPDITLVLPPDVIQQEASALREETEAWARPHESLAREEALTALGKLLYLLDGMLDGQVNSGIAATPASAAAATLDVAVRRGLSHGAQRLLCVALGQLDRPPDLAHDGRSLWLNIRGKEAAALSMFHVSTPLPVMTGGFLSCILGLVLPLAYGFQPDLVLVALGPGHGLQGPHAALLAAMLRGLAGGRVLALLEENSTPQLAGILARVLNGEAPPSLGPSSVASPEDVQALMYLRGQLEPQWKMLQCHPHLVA
Put plainly: Inhibition of recombinant human N-terminal FLAG-tagged HDAC10 (1 to 613 residues) expressed in Sf9 insect cells using Fluor de Lys deacetylase or Fluor de Lys Green deacetylase substrate by fluorescent microplate reader assay.

In assay [10] the target is Histone deacetylase 4 (Homo sapiens, UniProt P56524). Put plainly: Inhibition of recombinant human N-terminal GST-tagged and C-terminal His-tagged HDAC4 (627 to 1084 residues) expressed in Sf9 insect cells using Nepsilon-Trifluoroacetyl L-lysine as substrate by fluorescent microplate reader assay.
Sequence of Histone deacetylase 4 (P56524 whole entry, the tested form may be a part): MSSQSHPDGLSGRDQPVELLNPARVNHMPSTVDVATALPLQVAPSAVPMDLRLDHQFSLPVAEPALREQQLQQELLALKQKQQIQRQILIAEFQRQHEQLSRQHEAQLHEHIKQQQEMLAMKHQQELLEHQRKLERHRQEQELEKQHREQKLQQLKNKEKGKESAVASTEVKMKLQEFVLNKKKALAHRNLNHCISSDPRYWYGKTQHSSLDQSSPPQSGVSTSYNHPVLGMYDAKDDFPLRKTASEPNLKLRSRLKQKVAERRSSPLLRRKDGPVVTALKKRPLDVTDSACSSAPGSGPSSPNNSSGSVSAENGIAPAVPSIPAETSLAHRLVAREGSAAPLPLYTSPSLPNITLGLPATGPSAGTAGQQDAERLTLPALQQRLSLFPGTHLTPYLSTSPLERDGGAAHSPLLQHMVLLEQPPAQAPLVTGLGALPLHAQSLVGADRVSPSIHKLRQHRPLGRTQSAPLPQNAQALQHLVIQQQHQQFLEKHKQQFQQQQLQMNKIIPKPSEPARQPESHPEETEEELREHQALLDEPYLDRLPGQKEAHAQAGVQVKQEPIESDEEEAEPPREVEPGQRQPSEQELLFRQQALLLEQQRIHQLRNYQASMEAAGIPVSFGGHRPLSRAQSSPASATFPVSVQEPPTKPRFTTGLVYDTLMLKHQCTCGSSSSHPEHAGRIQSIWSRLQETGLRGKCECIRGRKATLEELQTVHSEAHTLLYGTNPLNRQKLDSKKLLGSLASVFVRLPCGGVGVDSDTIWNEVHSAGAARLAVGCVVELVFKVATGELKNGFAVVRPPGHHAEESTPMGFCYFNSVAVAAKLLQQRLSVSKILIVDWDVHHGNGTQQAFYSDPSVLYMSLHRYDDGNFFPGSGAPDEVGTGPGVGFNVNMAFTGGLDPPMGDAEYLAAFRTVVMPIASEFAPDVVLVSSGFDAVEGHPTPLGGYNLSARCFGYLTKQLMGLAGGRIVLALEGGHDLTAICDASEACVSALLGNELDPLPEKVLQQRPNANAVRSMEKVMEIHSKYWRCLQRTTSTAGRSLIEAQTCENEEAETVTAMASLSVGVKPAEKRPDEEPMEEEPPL
For assay [11], the target named is Histone deacetylase 9 (Homo sapiens, UniProt Q9UKV0). Put plainly: Inhibition of recombinant human C-terminal His-tagged HDAC9 (604 to 1066 residues) expressed in baculovirus expression system using Nepsilon-Trifluoroacetyl L-lysine substrate by fluorescent microplate reader assay.
Sequence of Histone deacetylase 9 (Q9UKV0 whole entry, the tested form may be a part): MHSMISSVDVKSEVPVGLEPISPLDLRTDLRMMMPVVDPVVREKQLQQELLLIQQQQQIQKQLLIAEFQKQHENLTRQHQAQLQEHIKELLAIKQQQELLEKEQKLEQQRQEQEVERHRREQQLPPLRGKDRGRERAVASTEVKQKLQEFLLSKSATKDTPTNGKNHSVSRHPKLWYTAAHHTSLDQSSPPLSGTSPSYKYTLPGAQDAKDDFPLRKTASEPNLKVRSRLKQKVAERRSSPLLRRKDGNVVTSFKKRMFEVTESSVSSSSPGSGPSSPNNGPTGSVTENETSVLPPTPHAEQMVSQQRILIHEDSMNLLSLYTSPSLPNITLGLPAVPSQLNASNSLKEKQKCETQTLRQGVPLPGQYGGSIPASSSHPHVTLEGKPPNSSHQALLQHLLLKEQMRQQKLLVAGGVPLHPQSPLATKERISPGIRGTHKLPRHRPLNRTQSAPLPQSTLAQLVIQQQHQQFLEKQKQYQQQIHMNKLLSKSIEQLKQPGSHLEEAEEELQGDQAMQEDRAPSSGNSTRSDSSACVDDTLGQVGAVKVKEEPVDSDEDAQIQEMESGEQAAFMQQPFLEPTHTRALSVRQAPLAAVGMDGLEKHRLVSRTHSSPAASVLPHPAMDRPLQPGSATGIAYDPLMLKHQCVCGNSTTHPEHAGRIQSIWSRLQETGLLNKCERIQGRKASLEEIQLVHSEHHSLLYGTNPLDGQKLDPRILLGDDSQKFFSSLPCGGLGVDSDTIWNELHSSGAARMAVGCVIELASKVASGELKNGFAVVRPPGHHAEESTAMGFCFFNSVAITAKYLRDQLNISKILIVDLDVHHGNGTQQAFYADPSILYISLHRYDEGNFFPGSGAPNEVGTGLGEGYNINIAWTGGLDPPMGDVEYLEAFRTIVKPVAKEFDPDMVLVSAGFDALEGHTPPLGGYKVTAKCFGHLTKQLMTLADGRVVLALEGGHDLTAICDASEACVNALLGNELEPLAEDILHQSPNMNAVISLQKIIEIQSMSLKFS

pIC50: −log10 of the molar value.

Sequence of Histone deacetylase 2 (Q92769 whole entry, the tested form may be a part): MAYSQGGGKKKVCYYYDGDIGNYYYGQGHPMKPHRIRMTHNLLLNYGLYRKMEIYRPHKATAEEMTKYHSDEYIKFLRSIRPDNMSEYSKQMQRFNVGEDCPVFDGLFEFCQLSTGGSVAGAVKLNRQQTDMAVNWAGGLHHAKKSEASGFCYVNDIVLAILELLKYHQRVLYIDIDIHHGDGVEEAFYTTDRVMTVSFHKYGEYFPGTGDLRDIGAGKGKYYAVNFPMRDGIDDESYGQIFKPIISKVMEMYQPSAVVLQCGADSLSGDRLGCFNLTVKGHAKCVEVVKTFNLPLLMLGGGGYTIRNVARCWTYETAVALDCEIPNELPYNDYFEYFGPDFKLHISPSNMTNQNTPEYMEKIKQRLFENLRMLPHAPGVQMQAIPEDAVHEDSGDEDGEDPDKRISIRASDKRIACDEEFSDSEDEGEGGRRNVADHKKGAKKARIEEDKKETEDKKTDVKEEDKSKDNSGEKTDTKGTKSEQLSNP
Sequence of Histone deacetylase 1 (Q13547 whole entry): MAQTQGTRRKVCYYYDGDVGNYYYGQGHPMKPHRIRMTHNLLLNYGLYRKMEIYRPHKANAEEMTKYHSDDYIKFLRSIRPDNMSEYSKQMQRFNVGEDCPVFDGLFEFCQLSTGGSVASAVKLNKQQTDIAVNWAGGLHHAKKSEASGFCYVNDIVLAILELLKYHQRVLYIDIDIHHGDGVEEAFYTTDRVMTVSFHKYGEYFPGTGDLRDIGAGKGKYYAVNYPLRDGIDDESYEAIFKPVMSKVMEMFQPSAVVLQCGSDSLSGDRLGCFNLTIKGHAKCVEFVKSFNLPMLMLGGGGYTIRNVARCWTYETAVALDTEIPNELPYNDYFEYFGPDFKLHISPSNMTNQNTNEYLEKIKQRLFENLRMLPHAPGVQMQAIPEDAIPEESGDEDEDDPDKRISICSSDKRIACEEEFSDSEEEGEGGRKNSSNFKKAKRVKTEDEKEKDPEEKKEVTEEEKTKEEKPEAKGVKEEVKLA

For orientation: pIC50 means −log10 of the IC50, conventionally taken in molar units. `O=C(NO)c1ccc(Cn2nnc(-c3ncccn3)n2)cc1`: the negative-log IC50 (pIC50) in [1] is 5.52; in [2] it was 6.05; in assay [3], 6.03; in assay [4], 6.00; in assay [5], 5.30; in assay [6] it was 6.12. Besides, the negative logarithm of the IC50 (pIC50) was 6.49 in assay [7], 6.32 in [9], 5.34 in assay [10] and 5.77 in assay [11]. Further, the Selectivity Index in assay [8] came to 733.
